What was measured:
cPK-KO mice = assay: Conditional adult parkin knockout (cPK-KO) mice; type: in vivo
From the text: In this setting, the level of farnesylated PARIS was monitored in the SN of cPK-KO mice fed with either chow diet or farnesol diet.
To generate Cre-flox conditional model of parkin knock out, an adeno-associated vector expressing GFP fused Cre recombinase (AAV-GFPCre) was stereotaxically introduced into the SN of exon 7 floxed parkin mice (parkin^Flox/Flox).

Tg-PARIS mice = assay: Tet inducible conditional PARIS transgenic mice (Tg-PARIS); type: in vivo
From the text: A C-terminal FLAG tagged human PARIS under the control of a tetracycline responsive regulator (TetP-PARIS-Flag) was used to generate tetracycline responsive transgenic mice (Figure S5A). […] Three of the highest copy number male founder mice were crossed with the CamKIIα-tTA transgenic mice to achieve transgene expression throughout the mouse forebrain (Mayford et al., 1996). […] Thus, dams were maintained on doxycycline to suppress PARIS expression and pups were maintained on doxycycline diet for three weeks after birth. […] Dopamine neuronal number was assessed at 6 weeks of age when the mice were moribund by unbiased stereology counting of TH and Nissl positive neurons.
A second cohort of Tg-PARIS mice were maintained on […] prior to doxycycline withdrawal. Two groups of non-transgenic control (CamKIIα-tTA or TetP-PARIS) mice were subjected to the same dietary regimen.
To generate tet-off conditional PARIS transgenic mice, linearized transgenic constructs (NotI digestion, 8 kbp) were microinjected into the embryos and the embryos were transferred into B6D2F1 pseudo-pregnant female mice (Transgenic Animal Core of National Cancer Institute). The three high copy founders (line #121, 158, 179) were mated with C57/BL6 mice for two to three generations to establish the transgenic lines. PARIS induction in conditional transgenic mice was suppressed by feeding the mice with doxycycline-containing food (doxycycline Diet-Sterile, 200 mg per kg doxycycline, Bio-Serv).

α-syn PFF-injected mice = α-syn PFF-injected mice (WT and C638S KI); type: in vivo; conditions: farnesol diet from 2 weeks post-injection; WT versus C638S KI
From the text: Specifically, FIG. 16A illustrates generating Zfp746^C638S/C638S knockin mice (C638S KI) by CRISPR/Cas9. […] WB, western blot analysis. (FIG. 16B). […] (FIG. 16C). […] Stereological TH, Nissl-positive neuronal counting was indicated at the bottom, n=4 mice per group. (FIG. 16 D). […] WT, n=8, 9, 10, and 9 mice for each group; C638S KI, n=8, 10, 9, and 9 mice for each group. (FIG. 16 D). […] WT, n=8, 9, 10, and 9 mice for each group; C638S KI, n=9, 10, 9, and 9 mice for each group. (FIG. 16F). […] Data=mean±SEM. (FIG. 16G).
Statistical significance was determined by two-way ANOVA test with Tukey post-hoc analysis. Differences were considered significant when p<0.05. *p<0.05, **p<0.01, and ***p<0.001.

PGC-1α promoter = PGC-1α promoter activity with PARIS WT or PARIS C631S mutant; type: cell-based; conditions: PARIS WT; not observed with PARIS C631S mutant
PPARα = target: T1, PPARα (Homo sapiens, UniProt Q07869); conditions: cited from earlier work
T1 sequence (Q07869 1-468): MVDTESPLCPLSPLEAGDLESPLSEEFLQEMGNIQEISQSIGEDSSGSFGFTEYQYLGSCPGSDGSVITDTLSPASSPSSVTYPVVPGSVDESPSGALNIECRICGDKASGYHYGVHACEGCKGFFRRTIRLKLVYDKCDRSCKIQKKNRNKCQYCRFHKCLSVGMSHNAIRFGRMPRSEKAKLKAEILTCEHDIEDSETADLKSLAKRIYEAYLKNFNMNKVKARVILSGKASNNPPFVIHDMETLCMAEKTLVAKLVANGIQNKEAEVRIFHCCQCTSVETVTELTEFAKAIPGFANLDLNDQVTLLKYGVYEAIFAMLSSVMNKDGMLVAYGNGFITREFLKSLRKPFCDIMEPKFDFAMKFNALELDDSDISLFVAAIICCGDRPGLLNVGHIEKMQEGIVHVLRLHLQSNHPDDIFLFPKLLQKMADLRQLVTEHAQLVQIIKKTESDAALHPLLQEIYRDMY

PGC-1α target genes = assay: mRNA of PGC-1α target genes in SH-SY5Y cells by real-time qRT-PCR; type: cell-based
Experimental: The 9 compounds that activate the PGC-1α promoter in the presence of PARIS were evaluated to determine which compounds induce PGC-1α levels in SH-SY5Y cells (FIGS. 2A and 2B). […] The mRNA level of PGC-1α target genes including copper/zinc superoxide dismutase (SOD1), manganese SOD (SOD2), glutathione peroxidase (GPx1), catalase (CAT), nuclear respiratory factor-1 (NRF-1), mitochondrial transcription factor A (TFAM), mitochondrial uncoupling proteins (UCP2 and UCP3), and the oxidative phosphorylation regulators, ATP5b, cytochrome C (CytC) and cytochrome C oxidase (COX II and IV) were determined by real-time quantitative RT-PCR (qRT-PCR) (FIG. 2C).

[1] = farnesol-fed versus normal chow-fed mice

## CC(C)=CCC/C(C)=C/CC/C(C)=C/CO [farnesol, (2E,6E)-3,7,11-trimethyldodeca-2,6,10-trien-1-ol]
cPK-KO mice; SN of cPK-KO mice, farnesol diet
  farnesylation of PARIS: enhanced farnesylation of PARIS
cPK-KO mice; cPK-KO mice, farnesol diet
  decrements of PGC-1α and NRF-1 levels in the SN: prevents the decrements of PGC-1α and NRF-1 levels
cPK-KO mice; cPK-KO, farnesol diet from 7 days prior to viral injection
  loss of dopamine neurons in the SN: completely and significantly prevents the loss of dopamine neurons
cPK-KO mice; control mice, farnesol diet
  PGC-1α and NRF-1 levels in the SN of control mice: increases PGC-1α and NRF-1 levels
cPK-KO mice; [1]
  mRNA of PGC-1α, NRF-1, SOD2, TFAM, UCP2, CytC, COX II and COX 1 in the SN: upregulation
Tg-PARIS mice; Tg-PARIS SN, co-immunostaining
  dopaminergic neuronal PGC-1α immunoreactivity: increased dopaminergic neuronal PGC-1α immunoreactivity
Tg-PARIS mice; Tg-PARIS, farnesol diet
  Pole Test behavior: complete behavioral rescue
  farnesylation of PARIS (FLAG immunoprecipitation, farnesyl antibody): enhanced farnesylation of PARIS
  premature lethality due to PARIS overexpression: delays the premature lethality
  reduction in PGC-1α and NRF-1 levels: blocked
Tg-PARIS mice; Tg-PARIS, farnesol diet from 3 days prior to doxycycline withdrawal
  loss of dopamine neurons in the SN (TH and Nissl stereology): completely prevents the loss of dopamine neurons
Tg-PARIS mice; [1]
  mRNA level of PGC-1α and NRF-1 in the SN: significantly upregulated
Tg-PARIS mice; non-transgenic control mice, farnesol diet
  PGC-1α and NRF-1 levels in control mice: increases PGC-1α and NRF-1 levels
α-syn PFF-injected mice
  neuroprotective effect in α-syn PFF-injected mice: requires PARIS farnesylation in vivo
PGC-1α promoter
  PGC-1α promoter activity: increase of PGC-1α promoter activity
PPARα
  activation of PPARα in vitro: capable of activating
PGC-1α target genes
  PGC-1α, SOD1, and ATP5B mRNA levels: increased
  mRNA level of NRF-1: robustly increased
